MIC data for one compound are collected here from patent US4143134A, “Halo-phosphonopeptides” (Hoffmann-La Roche Inc., priority 1976, dated 1979).

Each structure is given as a SMILES string. ≈ marks a conversion by molar mass, not a printed value.

What all share (assay type): cell-based
The test system of assay [1] is Escherichia coli NCTC 10418 P.S. As to the kind of experiment: in vitro M.I.C. test against Escherichia coli NCTC 10418 P.S. As to conditions: NCTC10418, read-out: M.I.C. (minimum inhibitory concentration). The text has this: (§1) The following Table illustrates the minimum inhibitory concentration (M.I.C.) in μg/ml of a representative peptide derivative provided by this invention, namely (1R)-1-(L-3-fluoroalanylamino)-ethylphosphonic acid, in an in vitro test against various organisms.

Assay [2] deals with Escherichia coli NCIB 8879 P.S. The assay is described as follows: in vitro M.I.C. test against Escherichia coli NCIB 8879 P.S. As to conditions: NCIB8879, read-out: M.I.C. (minimum inhibitory concentration).
From the text: as §1

The subject of assay [3] is Klebsiella aerogenes Type 33 Ba. The assay is described as follows: in vitro M.I.C. test against Klebsiella aerogenes Type 33 Ba. Particulars: TYPE33BA, read-out: M.I.C. (minimum inhibitory concentration).
From the text: as §1

Assay [4] relates to Klebsiella aerogenes O-G KAl. The assay is described as follows: in vitro M.I.C. test against Klebsiella aerogenes O-G KAl. Particulars: read-out: M.I.C. (minimum inhibitory concentration).
From the text: as §1

Assay [5] concerns Escherichia coli C.1.5 P.R. The assay is described as follows: in vitro M.I.C. test against Escherichia coli C.1.5 P.R. As to conditions: read-out: M.I.C. (minimum inhibitory concentration).
From the text: as §1

Assay [6] concerns Haemophilus influenzae NCTC 4560. The assay is described as follows: in vitro M.I.C. test against Haemophilus influenzae NCTC 4560. As to conditions: NCTC4560, read-out: M.I.C. (minimum inhibitory concentration).
From the text: as §1

For the compound `C[C@H](NC(=O)[C@@H](N)CF)P(=O)(O)O` [(1R)-1-(L-3-fluoroalanylamino)-ethylphosphonic acid], the MIC came out at 0.25 µg/mL (≈ 1.17 µM) in assay [1]; 0.5 µg/mL (≈ 2.33 µM) in assay [2]; 1 µg/mL (≈ 4.67 µM) in assay [3]; 4 µg/mL (≈ 18.7 µM) in assay [4]; 4 µg/mL (≈ 18.7 µM) in assay [5]; 8 µg/mL (≈ 37.4 µM) in assay [6].
